# The supplement of paper PMC11208160
# Assay: recombinant UMI read abundance after kanamycin selection (control-corrected) (log10(CPM+1)); higher = more efficient recombination; extreme values may be limits of the assay; sequences stand for … in AGTGCAGAGAAAATCGGCCAGTTTTCTCTGCCTGCAGTCCGCATGCCGTGGGACCCCTTGGGTTCTAACCTGTTGCCTAGATTTATGCAGCGGACTGCCTTTCTCCCAAAGTGATAAACCGG…AGGTTGGTTTCACT; site = the 11-nt donor
# How it was run: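 Each donor and donor-binding-loop pair was tracked by a 12-nt UMI on a plasmid carrying a promoterless kanamycin gene. With a second plasmid supplying a fixed target and T7-inducible IS621 bridge recombinase, the pool was plated in Escherichia coli on IPTG (0.07 mM) plus kanamycin or unselected. Sequencing of recombinant UMIs across the donor–target junction gave counts expressed as log10(CPM+1) after replicate averaging and control-derived scaling.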
row,Sequence,recombinant UMI read abundance (log10)
1,CGACAATCATGGACCGGTTTTCCCGGTAATCCGTATTTGAC (site CGACAATCTGT),2.86
2,CGACCAACATGGACCGGTTTTCCCGGTAATCCGTATTTGAT (site GAGGGGCCTTC),0.006
3,CGACCATCATGGACCGGTTTTCCCGGTAATCCGTATTTGGT (site CGACCATCTAC),0.825
4,CGACCATCATGGACCGGTTTTCCCGGTAATCCGTATTTGGT (site CGATCATCTAG),0
5,CGACCCTCATGGACCGGTTTTCCCGGTAATCCGTATTTGCT (site CGACCCTCTAG),3.63
6,CGACCCTCATGGACCGGTTTTCCCGGTAATCCGTATTTGCT (site CGATCATCTAG),0
7,CGACGACCATGGACCGGTTTTCCCGGTAATCCGTATTTGAC (site CGACGACCTGT),0
8,CGACGGTCATGGACCGGTTTTCCCGGTAATCCGTATTTGTC (site CGACGGTCTGA),2.77
9,CGACGTACATGGACCGGTTTTCCCGGTAATCCGTATTTGCT (site CGACGTACTAG),2.45
10,CGACGTACATGGACCGGTTTTCCCGGTAATCCGTATTTGCT (site CGCCGTACTAG),0.0167
11,CGACGTACATGGACCGGTTTTCCCGGTAATCCGTATTTGCT (site CGGCGTACTAG),0.688
12,CGACGTACATGGACCGGTTTTCCCGGTAATCCGTATTTGCT (site CGTCGTACTAG),0.764
13,CGACTTGCATGGACCGGTTTTCCCGGTAATCCGTATTTGAT (site CGACTTGCTAT),2.39
14,CGAGAGGCATGGACCGGTTTTCCCGGTAATCCGTATTTGGG (site CGAGAGGCTCC),0.928
15,CGAGCATCATGGACCGGTTTTCCCGGTAATCCGTATTTGCT (site CGAACATCTAG),0
16,CGAGCATCATGGACCGGTTTTCCCGGTAATCCGTATTTGCT (site CGACCATCTAG),0
17,CGAGCATCATGGACCGGTTTTCCCGGTAATCCGTATTTGCT (site CGAGCATCTAG),1.79
18,CGAGCATCATGGACCGGTTTTCCCGGTAATCCGTATTTGCT (site CGATCATCTAG),0
19,CGAGGACCATGGACCGGTTTTCCCGGTAATCCGTATTTGCG (site CGAGGACCTCA),0.00306
20,CGAGGACCATGGACCGGTTTTCCCGGTAATCCGTATTTGCG (site CGAGGACCTCC),0.00697
21,CGAGGACCATGGACCGGTTTTCCCGGTAATCCGTATTTGCG (site CGAGGACCTCG),0
22,CGAGGACCATGGACCGGTTTTCCCGGTAATCCGTATTTGCG (site CGAGGACCTCT),0.00945
23,CGAGGACCATGGACCGGTTTTCCCGGTAATCCGTATTTGGA (site CGAGGACCTAC),0
24,CGAGGACCATGGACCGGTTTTCCCGGTAATCCGTATTTGGA (site CGAGGACCTCC),0.0127
25,CGAGGACCATGGACCGGTTTTCCCGGTAATCCGTATTTGGA (site CGAGGACCTGC),0
26,CGAGGACCATGGACCGGTTTTCCCGGTAATCCGTATTTGGA (site CGAGGACCTTC),0.0145

row,Sequence,recombinant UMI read abundance (log10)
1,CGAGGATCATGGACCGGTTTTCCCGGTAATCCGTATTTGGG (site CGAGGAACTCC),0.0163
2,CGAGGATCATGGACCGGTTTTCCCGGTAATCCGTATTTGGG (site CGAGGACCTCC),0.00347
3,CGAGGATCATGGACCGGTTTTCCCGGTAATCCGTATTTGGG (site CGAGGAGCTCC),0
4,CGAGGATCATGGACCGGTTTTCCCGGTAATCCGTATTTGGG (site CGAGGATCTCC),1.15
5,CGAGTATCATGGACCGGTTTTCCCGGTAATCCGTATTTGAT (site CGAGTATCTAT),2.89
6,CGAGTATCATGGACCGGTTTTCCCGGTAATCCGTATTTGAT (site CTAGTATCTGT),0
7,CGATAATCATGGACCGGTTTTCCCGGTAATCCGTATTTGCG (site CGATAATCTCG),3.34
8,CGATAATCATGGACCGGTTTTCCCGGTAATCCGTATTTGCG (site CGATCATCTAG),0
9,CGATCAACATGGACCGGTTTTCCCGGTAATCCGTATTTGTT (site CGATCAACTAA),0.0564
10,CGATCAACATGGACCGGTTTTCCCGGTAATCCGTATTTGTT (site CGATCCACTAA),0.0118
11,CGATCAACATGGACCGGTTTTCCCGGTAATCCGTATTTGTT (site CGATCGACTAA),0.00905
12,CGATCAACATGGACCGGTTTTCCCGGTAATCCGTATTTGTT (site CGATCTACTAA),0.00984
13,CGATCACCATGGACCGGTTTTCCCGGTAATCCGTATTTGAT (site CGATCACCTAT),0.00371
14,CGATCACCATGGACCGGTTTTCCCGGTAATCCGTATTTGAT (site CGATCATCTAG),0
15,CGATCATCATGGACCGGTTTTCCCGGTAATCCGTATTTGCT (site ACATCATCTAG),1.28
16,CGATCATCATGGACCGGTTTTCCCGGTAATCCGTATTTGCT (site AGAGCATCTAG),0
17,CGATCATCATGGACCGGTTTTCCCGGTAATCCGTATTTGCT (site AGATCAGCTAG),0.00274
18,CGATCATCATGGACCGGTTTTCCCGGTAATCCGTATTTGCT (site AGATCATCTAA),0.00548
19,CGATCATCATGGACCGGTTTTCCCGGTAATCCGTATTTGCT (site AGATCATCTAG),2.17
20,CGATCATCATGGACCGGTTTTCCCGGTAATCCGTATTTGCT (site AGATCATCTTG),0
21,CGATCATCATGGACCGGTTTTCCCGGTAATCCGTATTTGCT (site AGATCTTCTAG),0
22,CGATCATCATGGACCGGTTTTCCCGGTAATCCGTATTTGCT (site AGATTATCTAG),0.017
23,CGATCATCATGGACCGGTTTTCCCGGTAATCCGTATTTGCT (site AGGTCATCTAG),0
24,CGATCATCATGGACCGGTTTTCCCGGTAATCCGTATTTGCT (site CAAACATCTAG),1.6
25,CGATCATCATGGACCGGTTTTCCCGGTAATCCGTATTTGCT (site CAATCACCTAG),0
26,CGATCATCATGGACCGGTTTTCCCGGTAATCCGTATTTGCT (site CAATCATCTAG),1.62
